The text below walks through data of patent US20020034725A1, “SENSITIZATION OF CELLS TO RADIATION AND AND CHEMOTHERAPY” (priority 1996, published 2002).

One assay concerns the target FTase (Homo sapiens, UniProt P49354+P49356). The conditions noted are these: cited from earlier work.
Another assay relates to H-ras. The conditions noted are these: cited from earlier work.
The test system of the next assay is H-ras^v12. Kind of assay: Western blot of H-ras farnesylation in H-ras transformed REF cells (3.7, 4R, 5R). It is filed as cell-based, rat. The conditions noted are these: 5R cells, dose of 32 μM. The text has this: (§1) The oncogene-transfected cells used in this study were all derived from early passage rat embryo fibroblast (REF) by transfection with the pEJ plasmid containing the H-ras gene isolated from the EJ bladder carcinoma. This vector was introduced by calcium phosphate DNA transfer into primary REF, either alone or together with the pMC29 vector containing v-myc. One clone containing both the introduced H-ras gene and the v-myc genes is 3.7 (McKenna et al., 1990, Cancer Res. 50:97-102). 4R and 5R cells were obtained as rare transformants after transfection with the pEJ plasmid alone (McKenna et al., 1993, supra). MR4 cells were immortalized by transfection with an expression vector comprising v-myc linked to a neomycin-resistant selectable marker (McKenna et al., 1991, Radiat. Res. 125:283-287). REF-GG cells were obtained by transforming REF cells with a chimeric H-ras(v12) in which the CAAX motif is CVLL. All cell lines were mycoplasma free.
(§2) Cells were lysed in culture dishes with 1 x reducing Laemmli sample buffer. Samples were boiled, sheared and clarified by centrifugation at 14,000 rpm in a microfuge before storage at −20° C. Samples containing equal amounts of protein were separated on a 12% SDS polyacrylamide gel and electrophoretically transferred to nitrocellulose membranes. Membranes were blocked for 1-2 hours in PBS containing 0.1% Tween-20 and 5% powdered milk before antibody addition. Membranes were probed with monoclonal pan-ras antibody AB-4 (Oncogene Science, Uniondale, N.Y.) at a concentration of 0.5 μg/ml, or with monoclonal H-ras antibody LA069 (1:5000 dilution; Quality Biotech, Camden, N.J.). Detection of protein was accomplished using the ECL chemiluminescence kit (Amersham, Arlington Heights, Ill.). Images were digitized using an Arcus II scanner, and figures were assembled using Adobe Photoshop 3.0.
Transformed REF cells derived from the R5 cell line were treated with 5 μm FTI-277 to establish a time course for the accumulation of unfarnesylated H-ras. Prenylated forms of ras migrate more rapidly than unprenylated ras on SDSpolyacrylamide gels (Gutierrez et al., 1989, EMBO J. 8:1093-1098; Farh et al., 1995, Arch. Biochem. Biophys. 18:113-121). This shift in motility was used to assess the prenylation status of H-ras after farnesyltransferase inhibitor treatment.
For orientation: In western blotting, separated proteins are transferred to a membrane and probed.

The next assay concerns wild type c-H-ras. Kind of assay: Western blot of ras farnesylation in untransformed REF and MR4 cells. It is filed as cell-based, rat. The conditions noted are these: MR4 cells.
Text: as §1, §2

A further assay has as its system H-ras^v12 CVLL. Kind of assay: Western blot of prenylation of chimeric H-ras in REF-GG cells. The conditions noted are these: 24 hours, preliminary results. The class given is cell-based, rat.
Text: as §1
Cells were lysed in culture dishes with 1 x reducing Laemmli sample buffer. Samples were boiled, sheared and clarified by centrifugation at 14,000 rpm in a microfuge before storage at −20° C. Samples containing equal amounts of protein were separated on a 12% SDS polyacrylamide gel and electrophoretically transferred to nitrocellulose membranes. […]

The next assay relates to Rap1A. The conditions noted are these: cited from earlier work; for inhibition of Rap1A processing: whole cells.
The target in the next assay is GGTase I (Homo sapiens, UniProt P49354+P53609). The conditions noted are these: cited from earlier work.
For another assay, the system named is REF-GG cells. Briefly: SF2 by limiting dilution analysis of clonogens. It is filed as cell-based, rat. The conditions noted are these: 8 μM GGTI-298. The protocol:
FIG. 14B comprises two graphs depicting clonogenic survival of REF-GG cells following treatment with GGTI-298 and irradiation. REF-GG cells were plated at 1 to 5 cells per well in microtiter plates in the absence (top panel) or presence (bottom panel) of 8 μM of the geranylgeranyltransferase inhibitor, GGTI-298. Cells were then irradiated with 2 Gray or were mock irradiated. Cells were re-fed after 24 hours with medium that contained no inhibitor, thus diluting the inhibitor to 0.8 μM. These cells were then incubated for two weeks prior to scoring for colony formation. The data are presented as the natural log of the fraction of negative wells. The surviving fraction at 2 Gray was determined from the differences in the slopes obtained by linear regression of analysis of irradiated and unirradiated cells. The surviving fraction at 2 Gray calculated for cells irradiated after GGTI-298 treatment was 0.64. Control cell surviving fraction after 2 Gray was 0.91. The correlation coefficient for linear regression analysis (r^2) was greater than 0.95 in all cases.
Cells were irradiated with the indicated doses of ionizing radiation and were treated with FTI-277 for 24 hours after irradiation (FIG. 14A). […] The shoulders of the survival curves were reduced as were the overall slopes of the survival curves. […]

The test system of the next assay is K-ras. Kind of assay: Western blot of K-ras prenylation in SW480 and Panc-1 cells. It is filed as cell-based, human. The conditions noted are these: 8 μM GGTI-298 alone. As to the method: FIG. 17A is an image of a Western blot depicting inhibition by FTI-277 of K-ras prenylation in human SW480 colon carcinoma cells. SW480 cells were treated with the indicated concentrations of FTI-277 (μM) for 48 hours. Samples were harvested and cell lysates were analyzed by Western blotting using either a H-ras monoclonal antibody (top) or a K-ras monoclonal antibody (bottom). Arrows indicate unfarnesylated ras bands.
FIG. 18A is an image of a Western blot depicting the specific inhibition of K-ras prenylation by combined FTI-277 and GGTI-298 treatment. Log phase cultures of human pancreatic carcinoma cells (Panc-1) and colon carcinoma cells (SW480) were treated with 5 μM FTI and 8 μM GGTI 298 for 48 hours. Cell samples were then harvested and cell lysates were prepared for Western blot analysis using monoclonal antibodies to K-ras and nuclear lamin B. The electrophoretic mobility of the K-ras mutant in SW480 is slower than that of the mutant K-ras in Panc-1 cells.

In the case of 2-hydroxyfarnesylphosphonic acid, at FTase, the FTase inhibition entry is on record as “inhibit FTase”. The H-Ras processing result in the assay with H-ras is given as “inhibits H-Ras processing”.

In the case of `COC(=O)[C@H](CCSC)NC(=O)[C@H](/C=C\[C@@H](/C=C/[C@@H](N)CS)C(C)C)Cc1ccccc1` [B1086], on FTase, the FTase inhibition entry is listed as “capable of inhibiting FTase”.

In the case of `CSCC[C@H](NC(=O)c1ccc(NC[C@@H](N)CS)cc1)C(=O)O` [FTI-249], at FTase, the FTase inhibition entry was “potent FTase inhibitor”.

Consider `CSCC[C@H](NC(=O)c1ccc(NC[C@@H](N)CS)cc1-c1ccccc1)C(=O)O` [FTI-276], for which, at FTase, the FTase inhibition result was “inhibited Ftase activity”.

For `COC(=O)[C@H](CC(C)C)NC(=O)c1ccc(NC[C@@H](N)CS)cc1-c1ccccc1` [GGTI-286], the “inhibition of farnesylated H-ras^v12 (CVLS)” value in the assay on H-ras^v12 is listed as “only partially inhibited”. Also, the “migration of endogenous wild-type c-H-ras” value with wild type c-H-ras is reported as “no effect on the migration of this protein”. Further, the “lowest dose with effective inhibition of geranylgeranylation of chimeric H-ras^v12” value in the assay on H-ras^v12 CVLL came to 4 µM. Moreover, the “inhibition of Rap1A processing” value in the assay with Rap1A is “potent inhibitor of posttranslational processing of Rap1A”.

As for `CC(C)C[C@H](NC(=O)c1ccc(NC[C@@H](N)CS)cc1-c1ccccc1)C(=O)O` [GGTI-287], the “increase in potency of inhibition of FTase” value at FTase (relative to GGTI-279) was 20 fold. In addition, the “increase in potency of inhibition of GGTase I” value at GGTase I (relative to GGTI-279) is 20 fold.

In the case of `CC(C)C[C@H](NC(=O)c1ccc(NC[C@@H](N)CS)cc1-c1cccc2ccccc12)C(=O)O` [GGTI-297], the FTase inhibition result at FTase is “inhibitors of GGTase I and FTase”. On GGTase I, the “GGTase I inhibition” value was “inhibitors of GGTase I and FTase”; the “potency, less potent than GGTI-287” value was 10 fold. Moreover, the “selectivity for GGTase I over FTase” value on GGTase I (in vitro) is recorded as 5 fold.

For `COC(=O)[C@H](CC(C)C)NC(=O)c1ccc(NC[C@@H](N)CS)cc1-c1cccc2ccccc12` [GGTI-298], in the assay on REF-GG cells, the “SF2 (surviving fraction at 2 Gray)” value is recorded as 0.64. The “prenylation of K-ras” value with K-ras is “no effect on prenylation of K-ras”. The FTase inhibition entry at FTase is “inhibitors of GGTase I and FTase”. The “GGTase I inhibition” value at GGTase I is “inhibitors of GGTase I and FTase”. In addition, the Rap1A protein processing result with Rap1A (concentration of 10 μM) is “completely inhibiting Rap1A protein processing”. Also, the “inhibition of Rap1A processing” value with Rap1A is “as potent as GGTI-286”. In the assay with H-ras (concentration of 10 μM), the H-ras processing result is listed as “without affecting H-ras processing”.

For `CC[C@H](C)[C@@H](CO[C@@H](Cc1ccccc1)C(=O)N[C@@H](CCS(C)(=O)=O)C(=O)OC)NC[C@@H](N)CS` [L-739,749], the FTase inhibition result on FTase is “very potent inhibitors of FTase”.

For the compound `CC[C@H](C)[C@@H](CO[C@@H](Cc1ccccc1)C(=O)N[C@@H](CCS(C)(=O)=O)C(=O)O)NC[C@@H](N)CS` [L-739,750], at FTase, the FTase inhibition result is listed as “very potent inhibitors of FTase”.

As to `CC[C@H](C)[C@@H](CO[C@@H](Cc1ccccc1)C(=O)N[C@@H](CCS(C)(=O)=O)C(=O)OC(C)C)NC[C@@H](N)CS` [L-744,832], the “farnesylation of endogenous H-ras” value with wild type c-H-ras (highest dose used) was “less susceptible to farnesylation inhibition”.

As to `COCC[C@@H]1CN(C(=O)c2cccc3ccccc23)CCN1C[C@H](N)CS` [L-745,631], the “mode of FTase inhibition” value on FTase is on record as “competitive with respect to H-Ras binding to FTase”. Moreover, in the assay with H-ras (whole cells), the “FTase activity in whole cells” value was “inhibits FTase activity in whole cells”.

As to `O=C(Cc1ccncc1)N1CCC(=C2c3ccc(Cl)cc3CCc3cccnc32)CC1` [SCH-44342], at FTase, the “mode of FTase inhibition” value is listed as “competitive inhibitor of FTase”.

Turning to (bz-(0)-His-Tyr-Ser [PD-15169], the FTase inhibition result at FTase is listed as “inhibits FTase activity”.

With “farnesylmethyl-hydroxyphosphinylmethyl phosphoric acid”, at FTase, the FTase inhibition result was “inhibit FTase”.
